Assay results: PMC5945515, “Measuring glucocorticoid receptor expression in vivo with PET” (Oncotarget, 2018)

Assays:
huAR = huAR (Homo sapiens, UniProt P10275); test: Competition binding assay on cells, human AR
Description: (§1) The KD for subfamily 3 group C nuclear hormone receptors was determined on cells by displacing ^3H-steroidal agonists for the respective receptor. […].
(§2) The cold ligands and ^3H-steroids were co-incubated on cells in PBS at room temperature for one hour. Following incubation, the cells were washed twice with ice cold PBS and the unbound activity was retained for analysis. The cells were lysed with 1 mL of 1 M NaOH and collected. Bound and unbound fractions were counted in a liquid scintillation counter and expressed as a percentage of the total activity added per equal relative number of cells. […]. The specific binding component was plotted against the log of the competing ligand and curve fit using a non-linear regression algorithm with PRISM software.

huMR = biological target: T1, huMR (Homo sapiens, UniProt P08235); test: Competition binding assay on cells, human MR; details: displacing 3H-aldosterone on cells
T1 sequence (P08235 1-984): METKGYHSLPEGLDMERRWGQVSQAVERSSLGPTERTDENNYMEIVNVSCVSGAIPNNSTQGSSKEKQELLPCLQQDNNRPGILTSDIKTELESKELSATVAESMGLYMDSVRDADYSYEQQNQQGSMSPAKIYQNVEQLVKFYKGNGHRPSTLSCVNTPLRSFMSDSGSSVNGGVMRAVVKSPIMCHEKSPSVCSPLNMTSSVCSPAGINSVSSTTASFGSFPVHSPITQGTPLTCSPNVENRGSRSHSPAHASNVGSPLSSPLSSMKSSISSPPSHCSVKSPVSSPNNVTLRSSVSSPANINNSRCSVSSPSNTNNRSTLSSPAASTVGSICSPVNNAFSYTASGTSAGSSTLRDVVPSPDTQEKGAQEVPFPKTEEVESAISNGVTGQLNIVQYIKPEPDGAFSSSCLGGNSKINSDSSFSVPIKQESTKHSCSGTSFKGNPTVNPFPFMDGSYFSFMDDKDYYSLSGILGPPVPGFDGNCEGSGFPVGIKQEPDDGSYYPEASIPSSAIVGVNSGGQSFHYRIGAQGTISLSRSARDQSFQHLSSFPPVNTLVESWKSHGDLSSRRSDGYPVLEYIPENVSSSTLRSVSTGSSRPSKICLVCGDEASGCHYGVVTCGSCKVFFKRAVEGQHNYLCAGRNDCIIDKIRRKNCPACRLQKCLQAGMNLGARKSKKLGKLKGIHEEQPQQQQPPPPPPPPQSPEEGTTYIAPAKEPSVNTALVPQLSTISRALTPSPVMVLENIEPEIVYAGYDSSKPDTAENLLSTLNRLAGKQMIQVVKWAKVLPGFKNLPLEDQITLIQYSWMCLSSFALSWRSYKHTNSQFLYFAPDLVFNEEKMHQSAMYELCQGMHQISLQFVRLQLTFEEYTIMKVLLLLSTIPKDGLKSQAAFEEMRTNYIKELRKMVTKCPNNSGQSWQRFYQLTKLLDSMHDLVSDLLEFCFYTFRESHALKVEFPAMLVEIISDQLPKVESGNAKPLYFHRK
Description: The KD for subfamily 3 group C nuclear hormone receptors was determined on cells by displacing ^3H-steroidal agonists for the respective receptor.
The cold ligands and ^3H-steroids were co-incubated on cells in PBS at room temperature for one hour. Following incubation, the cells were washed twice with ice cold PBS and the unbound activity was retained for analysis. The cells were lysed with 1 mL of 1 M NaOH and collected. Bound and unbound fractions were counted in a liquid scintillation counter and expressed as a percentage of the total activity added per equal relative number of cells. […] The specific binding component was plotted against the log of the competing ligand and curve fit using a non-linear regression algorithm with PRISM software.

rat GR = biological target: T2, rat GR (Rattus norvegicus, UniProt P06536); test: Competition binding assay on cells, rat GR; details: 9L cells, displacing 3H-dexamethasone; read-out: KD rtGR
T2 construct: endogenous in cells; host or cells: 9L
T2 sequence (P06536 1-795): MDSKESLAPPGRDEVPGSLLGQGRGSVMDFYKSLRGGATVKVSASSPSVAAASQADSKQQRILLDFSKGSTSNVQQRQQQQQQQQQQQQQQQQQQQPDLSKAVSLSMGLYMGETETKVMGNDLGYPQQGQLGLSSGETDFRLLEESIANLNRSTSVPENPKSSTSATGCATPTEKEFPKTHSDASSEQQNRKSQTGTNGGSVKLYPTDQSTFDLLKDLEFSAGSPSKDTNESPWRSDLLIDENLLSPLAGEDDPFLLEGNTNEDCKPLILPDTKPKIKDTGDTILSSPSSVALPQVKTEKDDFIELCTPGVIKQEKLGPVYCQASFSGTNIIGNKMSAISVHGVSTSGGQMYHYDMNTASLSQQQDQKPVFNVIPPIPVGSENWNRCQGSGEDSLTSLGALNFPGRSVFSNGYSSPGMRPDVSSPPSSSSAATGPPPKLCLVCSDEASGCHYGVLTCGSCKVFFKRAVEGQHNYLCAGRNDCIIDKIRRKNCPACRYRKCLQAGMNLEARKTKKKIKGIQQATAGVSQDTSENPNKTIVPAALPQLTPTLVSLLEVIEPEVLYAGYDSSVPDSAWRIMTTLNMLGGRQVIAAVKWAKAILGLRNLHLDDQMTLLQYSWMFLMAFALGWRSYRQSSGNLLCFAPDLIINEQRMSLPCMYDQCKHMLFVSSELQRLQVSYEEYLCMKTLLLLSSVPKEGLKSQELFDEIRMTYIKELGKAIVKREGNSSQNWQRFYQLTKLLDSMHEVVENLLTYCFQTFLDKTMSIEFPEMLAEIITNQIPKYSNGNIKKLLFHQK
Description: as §1, §2

Sequence of huAR (P10275 whole entry): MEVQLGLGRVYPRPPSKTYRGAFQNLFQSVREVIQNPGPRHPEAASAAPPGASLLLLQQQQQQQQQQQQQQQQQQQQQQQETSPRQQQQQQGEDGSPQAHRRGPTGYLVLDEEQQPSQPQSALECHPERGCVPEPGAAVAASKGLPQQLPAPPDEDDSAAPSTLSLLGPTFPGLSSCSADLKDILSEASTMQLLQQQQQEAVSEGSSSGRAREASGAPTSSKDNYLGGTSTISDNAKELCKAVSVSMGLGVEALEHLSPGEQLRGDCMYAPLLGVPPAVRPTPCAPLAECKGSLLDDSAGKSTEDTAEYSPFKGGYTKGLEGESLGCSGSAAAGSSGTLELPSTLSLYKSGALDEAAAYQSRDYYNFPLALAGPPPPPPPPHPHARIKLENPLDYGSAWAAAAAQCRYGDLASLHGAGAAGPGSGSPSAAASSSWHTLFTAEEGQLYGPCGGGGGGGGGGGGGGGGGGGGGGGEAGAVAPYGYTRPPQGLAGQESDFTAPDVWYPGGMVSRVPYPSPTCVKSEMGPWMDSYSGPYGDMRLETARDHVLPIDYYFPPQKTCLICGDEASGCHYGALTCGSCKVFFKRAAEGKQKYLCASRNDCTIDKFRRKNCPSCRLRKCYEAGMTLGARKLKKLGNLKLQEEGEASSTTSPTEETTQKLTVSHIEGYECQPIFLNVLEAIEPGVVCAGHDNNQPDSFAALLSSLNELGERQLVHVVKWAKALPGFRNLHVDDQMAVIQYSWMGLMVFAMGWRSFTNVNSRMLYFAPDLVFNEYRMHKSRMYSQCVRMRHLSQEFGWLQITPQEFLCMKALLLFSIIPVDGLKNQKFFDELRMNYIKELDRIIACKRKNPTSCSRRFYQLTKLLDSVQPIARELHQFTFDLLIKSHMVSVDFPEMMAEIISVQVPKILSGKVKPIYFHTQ

Row | Structure (SMILES) | Kd (huAR) [µM] | Kd (huMR) [µM] | Kd (rat GR) [µM]
1 | C[C@]12C=CC(=O)C=C1CCC1C2[C@@H](O)C[C@@]2(C)C1CC[C@]2(O)C(=O)COCCCF (some centres unmarked) [GR01] | 1.46 | 0.212 | 
2 | C[C@]12C=CC(=O)C=C1CCC1C2[C@@H](O)C[C@@]2(C)C1CC[C@]2(O)C(=O)CNC(=O)c1ccc(F)cc1 (some centres unmarked) [GR02] | 1.26 | 4.03 | 0.00618
